Assay results taken from PubChem BioAssay AID1259411 (Chemical Carcinogenesis Research Information System (CCRIS), 2018).
Calls of active or inactive are those of the source. How the calls were made is not given here.

System: rodent carcinogenicity bioassays, tumor incidence
Experiment: CCRIS carcinogenicity studies
Summary of the method: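 Archive of carcinogenicity, mutagenicity, tumor promotion and tumor inhibition results drawn from journals, NCI reports and other sources, expert-reviewed; covers 1985-2011 and is no longer updated.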

Measured: carcinogen call

Cn1c(N)nc2ncc(-c3ccccc3)cc21
inactive: Species: HAMSTER, Strain/Sex: RAPID ACETYLATOR CONGENIC/MALE, Route: ORAL, Dose: 75 MG/KG BW/DOSE BY GAVAGE, 2 DOSES/WK FOR 4 WK FOLLOWED BY 1 DOSE/WK FOR 1 WK AND 1 DOSE/2 WK FOR 4 WK, FOLLOWED BY A H inactive; negative | Species: HAMSTER, Strain/Sex: SLOW ACETYLATOR CONGENIC/MALE, Route: ORAL, Dose: 75 MG/KG BW/DOSE BY GAVAGE, 2 DOSES/WK FOR 4 WK FOLLOWED BY 1 DOSE/WK FOR 1 WK AND 1 DOSE/2 WK FOR 4 WK, FOLLOWED BY A H inactive; negative | Species: MOUSE, Strain/Sex: B6C3F1/MALE, Route: INTRAPERITONEAL, Dose: 0, 0.625 UMOL IN 35 µL DMSO ON D 1, 8, AND 15 AFTER BIRTH (STUDY DURATION: 8 MO) inactive; negative | Species: MOUSE, Strain/Sex: EU-PIM-1/FEMALE, Route: ORAL, Dose: 0, 0.03% IN DIET FOR 31 WK (STUDY DURATION: 31 WK) inactive; negative | Species: MOUSE, Strain/Sex: EU-PIM-1/MALE, Route: ORAL, Dose: 0, 0.03% IN DIET FOR 31 WK (STUDY DURATION: 31 WK) inactive; negative | Species: MOUSE, Strain/Sex: NON-TRANSGENIC WILD-TYPE/FEMALE, Route: ORAL, Dose: 0, 0.03% IN DIET FOR 31 WK (STUDY DURATION: 31 WK) inactive; negative | Species: MOUSE, Strain/Sex: NON-TRANSGENIC WILD-TYPE/MALE, Route: ORAL, Dose: 0, 0.03% IN DIET FOR 31 WK (STUDY DURATION: 31 WK) inactive; negative | Species: MOUSE, Strain/Sex: TRANSGENIC EU-PIM-1/MALE, Route: ORAL, Dose: 0, 0.03% IN DIET FOR 31 WK (STUDY DURATION: 31 WK) inactive; negative | Species: MOUSE, Strain/Sex: WILD-TYPE/FEMALE, Route: ORAL, Dose: 0, 0.03% IN DIET FOR 31 WK (STUDY DURATION: 31 WK) inactive; negative | Species: MOUSE, Strain/Sex: WILD-TYPE/MALE, Route: ORAL, Dose: 0, 0.03% IN DIET FOR 31 WK (STUDY DURATION: 31 WK) inactive; negative | Species: RAT, Strain/Sex: F344/MALE, FEMALE, Route: MATERNAL MILK, Dose: 200 PPM IN DIET TO MOTHERS FROM D OF MATING TO WEANING, THEN OFFSPRING ON CONTROL DIET FOR 60 WKS (STUDY DURATION: 63 WK inactive; negative; prostate and colon tumors not enhanced; multiplicity of aberrant crypt | Species: RAT, Strain/Sex: SPRAGUE DAWLEY/FEMALE, 150 D OLD, Route: ORAL, Dose: 75 MG/DOSE, 10 DOSES GIVEN ONCE/D OVER 12 D (STUDY DURATION: 6 MO), Tumor Site: Type of Lesion: MAMMARY GLAND inactive; negative (0% incidence) | Species: RAT, Strain/Sex: SPRAGUE-DAWLEY/MALE, Route: ORAL, Dose: 0, 25, 100 PPM IN DIET FROM WEANING TO 47 WK OF AGE (STUDY DURATION: 47 WK), Dose: 0, 25, 100 PPM IN DIET FROM WEANING TO 47 WK OF AGE (STUDY DURATION: 47 WK) inactive; negative | Species: RAT, Strain/Sex: SPRAGUE-DAWLEY/MALE, Route: TRANSPLACENTAL, ORAL, Dose: 0, 100 PPM IN DIET OF MOTHERS BEGINNING 4 WK BEFORE MATING AND CONTINUING THROUGH LACTATION THEN OFFSPRING ADMINISTERED inactive; negative
active: Species: MOUSE, Strain/Sex: B6C3F1/MALE, Route: INTRAPERITONEAL, Dose: 0, 0.625 UMOL IN 35 µL DMSO ON D 1, 8, AND 15 AFTER BIRTH (STUDY DURATION: 12 MO), Tumor Site: Type of Lesion: LIVER: HEPATOCELLULAR ADENOMA active; positive | Species: MOUSE, Strain/Sex: B6C3F1/MALE, Route: INTRAPERITONEAL, Dose: 0, 1.25 UMOL IN 35 µL DMSO ON D 1, 8, AND 15 AFTER BIRTH (STUDY DURATION: 8 MO), Tumor Site: Type of Lesion: LIVER: HEPATOCELLULAR ADENOMA active; positive | Species: MOUSE, Strain/Sex: B6C3F1/MALE, Route: INTRAPERITONEAL, Dose: 0, 1.25 UMOL IN 35 µL DMSO ON D 1, 8, AND 15 AFTER BIRTH (STUDY DURATION: 12 MO), Tumor Site: Type of Lesion: LIVER: HEPATOCELLULAR ADENOMA, HEPATOCELLULAR CARCINOMA active; positive | Species: MOUSE, Strain/Sex: C57/FEMALE, Route: ORAL, Dose: 0, 300 PPM IN HIGH FAT DIET FOR 40 WK, FOLLOWED BY CONTINUOUS FEEDING OF HIGH FAT DIET UNTIL STUDY TERMINATION (STUDY DU, Tumor Site: Type of Lesion: SMALL INTESTINE: ADENOCARCINOMAS OR ADENOMAS active; positive | Species: MOUSE, Strain/Sex: C57/MALE, Route: ORAL, Dose: 0, 300 PPM IN HIGH FAT DIET FOR 40 WK, FOLLOWED BY CONTINUOUS FEEDING OF HIGH FAT DIET UNTIL STUDY TERMINATION (STUDY DU, Tumor Site: Type of Lesion: SMALL INTESTINE: ADENOCARCINOMAS OR ADENOMAS, LYMPHATIC SYSTEM: LYMPHOMA active; positive | Species: MOUSE, Strain/Sex: CDF1/FEMALE, Route: ORAL, Dose: 0, 0.04% IN THE DIET FOR DURATION OF STUDY (STUDY DURATION: 579 D), Tumor Site: Type of Lesion: HEMATOPOIETIC SYSTEM: LYMPHOMA active; positive | Species: MOUSE, Strain/Sex: CDF1/MALE, Route: ORAL, Dose: 0, 0.04% IN THE DIET FOR DURATION OF STUDY (STUDY DURATION: 579 D), Tumor Site: Type of Lesion: HEMATOPOIETIC SYSTEM: LYMPHOMA active; positive | Species: MOUSE, Strain/Sex: TRANSGENIC EU-PIM-1/FEMALE, Route: ORAL, Dose: 0, 0.03% IN DIET FOR 31 WK (STUDY DURATION: 31 WK), Tumor Site: Type of Lesion: LYMPHATIC SYSTEM: LYMPHOMA active; positive | Species: RAT, Strain/Sex: F344/FEMALE, Route: ORAL, Dose: 0, 25, 100 PPM IN DIET FOR 104 WK (STUDY DURATION: 104 WK), Dose: 0, 25, 100 PPM IN DIET FOR 104 WK (STUDY DURATION: 104 WK), Tumor Site: Type of Lesion: MAMMARY GLAND: ADENOCARCINOMA active; positive | Species: RAT, Strain/Sex: F344/FEMALE, Route: ORAL, Dose: 0, 400 PPM IN DIET FOR 52 WK (STUDY DURATION: 52 WK), Tumor Site: Type of Lesion: MAMMARY GLAND: ADENOCARCINOMA active; positive | Species: RAT, Strain/Sex: F344/MALE, Route: ORAL, Dose: 0, 25, 100 PPM IN DIET FOR 104 WK (STUDY DURATION: 104 WK), Dose: 0, 25, 100 PPM IN DIET FOR 104 WK (STUDY DURATION: 104 WK), Tumor Site: Type of Lesion: COLON: CARCINOMA active; positive | Species: RAT, Strain/Sex: F344/MALE, Route: ORAL, Dose: 0, 100, 300 PPM IN DIET FOR 40 WK (STUDY DURATION: 40 WK), Dose: 0, 100, 300 PPM IN DIET FOR 40 WK (STUDY DURATION: 40 WK), Tumor Site: Type of Lesion: PROSTATE (VENTRAL): PROSTATIC INTRAEPITHELIAL NEOPLASIA active; positive | Species: RAT, Strain/Sex: F344/MALE, Route: ORAL, Dose: 0, 400 PPM IN DIET FOR 52 WK (STUDY DURATION: 52 WK), Tumor Site: Type of Lesion: COLON: ADENOCARCINOMA active; positive | Species: RAT, Strain/Sex: F344/MALE, Route: ORAL, Dose: 0, 400 PPM IN DIET FOR 52 WK (STUDY DURATION: 52 WK), Tumor Site: Type of Lesion: PROSTATE (VENTRAL): CARCINOMA active; positive | Species: RAT, Strain/Sex: SPRAGUE DAWLEY/FEMALE, 43 D OLD, Route: ORAL, Dose: 75 MG/DOSE, 10 DOSES GIVEN ONCE/D OVER 12 D (STUDY DURATION: 6 MO), Tumor Site: Type of Lesion: MAMMARY GLAND active; positive (5% incidence) | Species: RAT, Strain/Sex: SPRAGUE-DAWLEY/FEMALE, Route: ORAL, Dose: 0, 12.5, 50 PPM IN DIET FOR DURATION OF STUDY (STUDY DURATION: 48 WK), Dose: 0, 12.5, 50 PPM IN DIET FOR DURATION OF STUDY (STUDY DURATION: 48 WK), Tumor Site: Type of Lesion: MAMMARY GLAND: TUMOR active; positive | Species: RAT, Strain/Sex: SPRAGUE-DAWLEY/FEMALE, Route: ORAL, Dose: 0, 25, 100, 200 PPM IN DIET FOR 48 WK (STUDY DURATION: 48 WK), Dose: 0, 25, 100, 200 PPM IN DIET FOR 48 WK (STUDY DURATION: 48 WK), Tumor Site: Type of Lesion: MAMMARY GLAND: TUMOR active; positive | Species: RAT, Strain/Sex: SPRAGUE-DAWLEY/FEMALE, Route: ORAL, Dose: 0, 25, 100, 200 PPM IN DIET FOR DURATION OF STUDY (STUDY DURATION: 48 WK), Dose: 0, 25, 100, 200 PPM IN DIET FOR DURATION OF STUDY (STUDY DURATION: 48 WK), Tumor Site: Type of Lesion: MAMMARY GLAND: TUMOR active; positive | Species: RAT, Strain/Sex: SPRAGUE-DAWLEY/FEMALE, Route: ORAL, Dose: 0, 25, 100 PPM IN DIET FROM WEANING TO 47 WK OF AGE (STUDY DURATION: 47 WK), Dose: 0, 25, 100 PPM IN DIET FROM WEANING TO 47 WK OF AGE (STUDY DURATION: 47 WK), Tumor Site: Type of Lesion: MAMMARY GLAND: TUMOR active; positive | Species: RAT, Strain/Sex: SPRAGUE-DAWLEY/FEMALE, Route: ORAL, Dose: 0, 75 MG/KG IN 5 ML CORN OIL 1/D ON DAYS 1-5 AND 8-12 OF STUDY FOLLOWED 2 DAYS LATER BY A HIGH-FAT DIET FOR DURATION OF, Tumor Site: Type of Lesion: MAMMARY GLAND: TUMOR active; positive | Species: RAT, Strain/Sex: SPRAGUE-DAWLEY/FEMALE, Route: TRANSPLACENTAL, ORAL, Dose: 0, 100 PPM IN DIET OF MOTHERS BEGINNING 4 WK BEFORE MATING AND CONTINUING THROUGH LACTATION THEN OFFSPRING ADMINISTERED, Tumor Site: Type of Lesion: MAMMARY GLAND: TUMOR active; positive | Species: RAT, Strain/Sex: STRAIN-CD/FEMALE, Route: GAVAGE, Dose: 0, 50 UMOL IN 0.5 ML TRIOCTANOIN 1/WK FOR 8 WK (STUDY DURATION: 49 WK), Tumor Site: Type of Lesion: MAMMARY GLAND: FIBROADENOMA, ADENOCARCINOMA active; positive
